Measured values reported in PubChem BioAssay (NCI).
Values joined by “and” are separate entries in the source; they are usually repeats but may differ in a detail not shown here. Identical values can stand only once.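 Exposure lasted 48 hours, with cells grown in 96-well plates and compounds tested at five concentrations. At the GI50, growth is halved. TGI is the concentration that stops growth completely.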

Columns and labels:
Assay in all cases: DTP human tumour cell line panel, 48 h
[1] = tested on: IGROV1 ovarian
[2] = tested on: HOP-92 NSCLC
[3] = tested on: LOX IMVI melanoma
[4] = tested on: PC-3 prostate
[5] = tested on: SK-OV-3 ovarian
[6] = tested on: HL-60(TB) leukemia
[7] = tested on: MOLT-4 leukemia
[8] = tested on: K-562 leukemia
[9] = tested on: SF-539 CNS
[10] = tested on: RPMI-8226 leukemia

| SMILES | GI50 [1] | TGI [1] | GI50 [2] | TGI [2] | GI50 [3] | TGI [3] | GI50 [4] | TGI [4] | GI50 [5] | TGI [5] | GI50 [6] | TGI [6] | GI50 [7] | TGI [7] | GI50 [8] | TGI [8] | GI50 [9] | TGI [9] | GI50 [10] | TGI [10] |
| --- | --- | --- | --- | --- | --- | --- | --- | --- | --- | --- | --- | --- | --- | --- | --- | --- | --- | --- | --- | --- |
| CN1CCN(CCCOc2cccc3nc(Nc4ccc(F)c(F)c4)ccc23)CC1 | 5550 nM | 11.4 µM | 1430 nM | 5.74 µM | 1030 nM | 3.36 µM | 3830 nM | 8.43 µM | 4390 nM | 8.87 µM | 5180 nM | 11 µM | 1310 nM | 5.66 µM | 662 nM | 1.49 µM | 4030 nM | 8.56 µM | 5200 nM | 12.3 µM |
| CCc1nc2cc(/C=C/C(=O)NO)ccc2c(=O)n1CCc1ccc(OC)cc1 | – | – | 1900 nM | 5.7 µM | 1680 nM | 3.19 µM | 3320 nM | > 100 µM | 2420 nM | 6.11 µM | 3470 nM | > 100 µM | 2500 nM | > 100 µM | 3070 nM | > 100 µM | 1910 nM | 6.29 µM | 2380 nM | 56.1 µM |
| COc1cc(CN(c2ccc(C)cc2)C2OC(=O)c3ccccc32)cc(OC)c1OC (centres undefined) | 1290 nM | > 100 µM | 449 nM | > 100 µM | 635 nM | > 100 µM | 432 nM | > 100 µM | 472 nM | > 57.9 µM | 406 nM | 33.7 µM | 908 nM | > 100 µM | 365 nM | > 100 µM | 393 nM | > 100 µM | 455 nM | > 100 µM |
| COc1cccc(NC(=O)c2sc3nc4c(cc3c2N)C(O)CCC4)c1 (centres undefined) | 383 nM | > 100 µM | 169 nM | 23 µM | 766 nM | > 100 µM | 230 nM | > 100 µM | 317 nM | > 71.3 µM | 53.4 nM | 0.534 µM | 294 nM | > 100 µM | 40.6 nM | > 100 µM | 140 nM | 0.606 µM | 333 nM | > 100 µM |
| OC(COc1ccccc1)CN1CCCCC1 (centres undefined) | – | > 100 µM | – | > 100 µM | – | > 100 µM | – | > 100 µM | – | > 100 µM | – | > 100 µM | – | > 100 µM | – | > 100 µM | – | > 100 µM | – | > 100 µM |
| COc1ccc(-c2n[nH]nc2-c2cc(OC)c3c(c2)OCO3)cc1 | 28.9 nM | > 100 µM | 160 nM | 22.2 µM | 64.9 nM | 16 µM | 38.4 nM | > 100 µM | 29.4 nM | 2.08 µM | 25.2 nM | 0.336 µM | 62.7 nM | 5.45 µM | < 10 nM | > 100 µM | 15.4 nM | 0.0449 µM | 31.9 nM | 32.5 µM |
| CC[C@@H](O)C[C@H]1CCC[C@@]2(C[C@@H]3OC(=O)/C=C/[C@@](C)(O)[C@@H](O)[C@H](C)[C@@H](O)[C@H](OC4CCC(N(C)C)C(C)O4)[C@@H](O)[C@](C)(O)CCCCC/C=C/[C@@H]4CC(C)(C)O[C@@]4(O)C[C@H](O2)[C@H]3C)O1 (some centres undefined) | – | 21.8 µM | – | 37.2 µM | – | 9.46 µM | – | 15.7 µM | – | 29.1 µM | – | > 39.8 µM | – | 23.3 µM | – | 21.5 µM | – | 23.3 µM | – | 25 µM |
| COc1ccc(-c2nsc3c2NC(=O)CC3c2cccc(Cl)c2)cc1 (centres undefined) | 3330 nM | > 100 µM | 1090 nM | 33.6 µM | 5570 nM | > 100 µM | 2120 nM | > 100 µM | 3310 nM | > 100 µM | 2280 nM | > 27.6 µM | 4110 nM | > 100 µM | 399 nM | > 100 µM | 1750 nM | 6.06 µM | 3600 nM | > 100 µM |
| Nc1ccccc1C(=O)NC(=O)Nc1ccc(Oc2ncc(Br)cn2)c(Cl)c1 | – | 7.83 µM | 303 nM | 6.66 µM | – | 24.1 µM | – | 10.7 µM | – | 3.2 µM | 4.89 nM | 0.0451 µM and 0.232 µM | 51.1 nM | 33.9 µM | 6.59 nM | 18 µM | – | 0.0204 µM | – | 29.6 µM |
| COc1cc(Nc2ncnc(Nc3ccc4c(n3)NC(=O)C(C)(C)O4)n2)cc(OC)c1OC | 247 nM | 1.72 µM | 243 nM | 1.71 µM | 633 nM | > 100 µM | 1460 nM | > 100 µM | 929 nM | – | 4520 nM | > 100 µM | 5240 nM | > 100 µM | 3550 nM | > 100 µM | 230 nM | 0.673 µM | – | – |
| COc1cc(-c2nccc3cc4c(cc23)OCO4)cc(OC)c1OC | 8920 nM | > 100 µM | 11500 nM | > 100 µM | 6060 nM | > 100 µM | 4250 nM | > 100 µM | 4480 nM | > 100 µM | – | – | – | – | – | – | 3310 nM | 44.1 µM | 4980 nM | > 100 µM |
| CCOc1ccc(N=Cc2ccnc3ccccc23)cc1 | – | > 100 µM | – | > 100 µM | – | > 80.3 µM | – | > 100 µM | – | > 83.3 µM | – | 17 µM | – | > 100 µM | – | 46.9 µM | – | 85.9 µM | – | 35.1 µM |
| Cn1cncc1-c1c(F)cncc1NC(=O)c1c(N)nn2cc(F)cnc12 | 2540 nM | 13.8 µM | 4430 nM | 69.4 µM | 238 nM | 10.4 µM | 3410 nM | > 100 µM | 743 nM | 8.92 µM | 272 nM | 0.717 µM | 203 nM | 1.1 µM | 389 nM | > 100 µM | – | – | 1530 nM | 9.4 µM |
| CC/C(Cc1ccccc1)=C(/c1ccc(O)cc1)c1ccc(OCCN2CCCC2)cc1 | 1950 nM | 4.5 µM | 1610 nM | 3.26 µM | 1620 nM | 3.05 µM | 1790 nM | 3.25 µM | 1740 nM | 3.32 µM | 1900 nM | 3.84 µM | 1570 nM | 3.63 µM | 1200 nM | 3.41 µM | 1670 nM | 3.21 µM | 2100 nM | 4.67 µM |
| CCN(CC)c1nc(NC2CCCCC2)c2nc(N(CC)CC)nc(NC3CCCCC3)c2n1 | – | > 100 µM | – | > 100 µM | – | – | – | > 100 µM | – | > 100 µM | – | > 100 µM | – | > 100 µM | – | > 100 µM | – | > 100 µM | – | – |
